Measurements published in US12281080B2, “Quinoline-based compounds and methods of inhibiting CDK8/19” (University of South Carolina, priority 2018, dated 2025).

Tests used:
SGK (SGK1) = SGK (SGK1) (Homo sapiens (Human), UniProt O00141); test: KINOMEscan scanMAX; format: binding; conditions: 2000 nM; read-out: Percent Control
LTK = LTK (Homo sapiens (Human), UniProt P29376); test: KINOMEscan scanMAX; format: binding; conditions: 2000 nM; read-out: Percent Control
ICK = ICK (Homo sapiens (Human), UniProt Q9UPZ9); test: KINOMEscan scanMAX; format: binding; conditions: 2000 nM; read-out: Percent Control
RET(V804M) = RET(V804M) (Homo sapiens (Human), UniProt P07949, V804M); test: KINOMEscan scanMAX; format: binding; conditions: 2000 nM; read-out: Percent Control
[1] = molecular target: ABL1(T315I)-phosphorylated (Homo sapiens (Human), UniProt P00519, T315I); test: KINOMEscan scanMAX; format: binding; conditions: 2000 nM; read-out: Percent Control
CDKL5 = CDKL5 (Homo sapiens (Human), UniProt O76039); test: KINOMEscan scanMAX; format: binding; conditions: 2000 nM; read-out: Percent Control
Sequence of CDKL5 (O76039 whole entry): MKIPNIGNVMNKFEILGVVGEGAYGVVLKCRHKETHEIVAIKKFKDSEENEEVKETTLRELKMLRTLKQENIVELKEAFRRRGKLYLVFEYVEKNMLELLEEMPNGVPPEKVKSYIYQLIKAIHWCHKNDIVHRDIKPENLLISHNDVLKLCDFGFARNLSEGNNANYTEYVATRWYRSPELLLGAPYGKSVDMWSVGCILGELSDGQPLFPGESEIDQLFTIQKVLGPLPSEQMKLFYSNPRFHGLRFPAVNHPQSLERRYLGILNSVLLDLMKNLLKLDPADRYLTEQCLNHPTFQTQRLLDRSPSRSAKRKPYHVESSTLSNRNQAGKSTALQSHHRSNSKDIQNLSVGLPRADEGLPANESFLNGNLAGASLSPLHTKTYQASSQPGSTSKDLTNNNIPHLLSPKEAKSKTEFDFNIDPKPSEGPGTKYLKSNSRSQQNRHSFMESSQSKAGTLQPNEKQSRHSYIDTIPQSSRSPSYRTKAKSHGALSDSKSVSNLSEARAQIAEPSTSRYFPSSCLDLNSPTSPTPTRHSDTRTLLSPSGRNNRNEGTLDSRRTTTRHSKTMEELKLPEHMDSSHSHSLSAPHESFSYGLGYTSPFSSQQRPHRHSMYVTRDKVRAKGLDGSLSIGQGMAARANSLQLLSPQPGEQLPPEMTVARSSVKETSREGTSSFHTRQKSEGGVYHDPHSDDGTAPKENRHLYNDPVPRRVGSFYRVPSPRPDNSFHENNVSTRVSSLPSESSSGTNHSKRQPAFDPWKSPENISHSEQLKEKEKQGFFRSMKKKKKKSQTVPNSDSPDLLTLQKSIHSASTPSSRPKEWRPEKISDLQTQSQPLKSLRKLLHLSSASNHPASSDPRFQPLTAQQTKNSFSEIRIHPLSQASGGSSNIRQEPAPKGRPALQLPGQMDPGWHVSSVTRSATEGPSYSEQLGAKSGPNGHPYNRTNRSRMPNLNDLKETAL

PDPK1 = PDPK1 (Homo sapiens (Human), UniProt O15530); test: KINOMEscan scanMAX; format: binding; conditions: 2000 nM; read-out: Percent Control
NIM1 (MGC42105) = NIM1 (MGC42105) (Homo sapiens (Human), UniProt Q8IY84); test: KINOMEscan scanMAX; format: binding; conditions: 2000 nM; read-out: Percent Control
GRK7 = GRK7 (Homo sapiens (Human), UniProt Q8WTQ7); test: KINOMEscan scanMAX; format: binding; conditions: 2000 nM; read-out: Percent Control
ALK(L1196M) = ALK(L1196M) (Homo sapiens (Human), UniProt Q9UM73, L1196M); test: KINOMEscan scanMAX; format: binding; conditions: 2000 nM; read-out: Percent Control
PKAC-alpha (PRKACA) = PKAC-alpha (PRKACA) (Homo sapiens (Human), UniProt P17612); test: KINOMEscan scanMAX; format: binding; conditions: 2000 nM; read-out: Percent Control
CSNK1D = CSNK1D (Homo sapiens (Human), UniProt P48730); test: KINOMEscan scanMAX; format: binding; conditions: 2000 nM; read-out: Percent Control
Sequence of CSNK1D (P48730 whole entry): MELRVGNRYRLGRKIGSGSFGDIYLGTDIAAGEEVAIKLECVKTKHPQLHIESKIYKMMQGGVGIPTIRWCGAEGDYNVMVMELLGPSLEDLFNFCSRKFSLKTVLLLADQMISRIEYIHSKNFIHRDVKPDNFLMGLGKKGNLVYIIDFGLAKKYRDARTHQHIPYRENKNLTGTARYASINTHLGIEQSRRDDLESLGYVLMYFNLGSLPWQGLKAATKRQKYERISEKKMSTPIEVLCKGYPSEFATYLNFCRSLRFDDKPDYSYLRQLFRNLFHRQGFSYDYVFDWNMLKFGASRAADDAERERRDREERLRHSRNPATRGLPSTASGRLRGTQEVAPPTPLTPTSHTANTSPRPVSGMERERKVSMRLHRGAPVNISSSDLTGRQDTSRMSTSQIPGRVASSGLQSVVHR

TEC = TEC (Homo sapiens (Human), UniProt P42680); test: KINOMEscan scanMAX; format: binding; conditions: 2000 nM; read-out: Percent Control
MAP3K2 = MAP3K2 (Homo sapiens (Human), UniProt Q9Y2U5); test: KINOMEscan scanMAX; format: binding; conditions: 2000 nM; read-out: Percent Control
YSK4 (MAP3K19) = YSK4 (MAP3K19) (Homo sapiens (Human), UniProt Q56UN5); test: KINOMEscan scanMAX; format: binding; conditions: 2000 nM; read-out: Percent Control
MYO3B = MYO3B (Homo sapiens (Human), UniProt Q8WXR4); test: KINOMEscan scanMAX; format: binding; conditions: 2000 nM; read-out: Percent Control
EGFR(E746-A750del) = EGFR(E746-A750del) (Homo sapiens (Human), UniProt P00533, DEL746-750); test: KINOMEscan scanMAX; format: binding; conditions: 2000 nM; read-out: Percent Control
DDR1 = DDR1 (Homo sapiens (Human), UniProt Q08345); test: KINOMEscan scanMAX; format: binding; conditions: 2000 nM; read-out: Percent Control
EGFR(G719C) = EGFR(G719C) (Homo sapiens (Human), UniProt P00533, G719C); test: KINOMEscan scanMAX; format: binding; conditions: 2000 nM; read-out: Percent Control
PAK7 = PAK7 (Homo sapiens (Human), UniProt Q9P286); test: KINOMEscan scanMAX; format: binding; conditions: 2000 nM; read-out: Percent Control
Sequence of PAK7 (Q9P286 whole entry): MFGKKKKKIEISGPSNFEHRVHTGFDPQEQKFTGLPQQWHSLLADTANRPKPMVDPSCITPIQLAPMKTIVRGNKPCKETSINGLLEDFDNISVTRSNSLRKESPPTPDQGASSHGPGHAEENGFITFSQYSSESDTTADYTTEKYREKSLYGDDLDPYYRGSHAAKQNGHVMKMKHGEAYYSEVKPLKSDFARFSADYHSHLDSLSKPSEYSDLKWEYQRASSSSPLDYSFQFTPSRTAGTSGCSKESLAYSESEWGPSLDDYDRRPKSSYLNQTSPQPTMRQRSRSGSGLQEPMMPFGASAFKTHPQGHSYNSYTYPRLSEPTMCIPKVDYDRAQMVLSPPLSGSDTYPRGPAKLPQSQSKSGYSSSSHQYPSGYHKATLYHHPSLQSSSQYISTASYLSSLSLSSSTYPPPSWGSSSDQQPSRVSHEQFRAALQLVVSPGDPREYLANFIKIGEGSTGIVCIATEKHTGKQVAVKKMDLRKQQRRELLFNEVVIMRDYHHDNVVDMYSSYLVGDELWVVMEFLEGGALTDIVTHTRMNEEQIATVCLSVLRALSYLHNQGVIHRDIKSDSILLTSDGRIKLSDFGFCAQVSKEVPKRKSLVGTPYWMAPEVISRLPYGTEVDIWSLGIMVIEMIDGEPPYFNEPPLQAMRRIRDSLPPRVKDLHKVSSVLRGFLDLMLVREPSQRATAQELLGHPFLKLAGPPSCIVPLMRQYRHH

SYK = SYK (Homo sapiens (Human), UniProt P43405); test: KINOMEscan scanMAX; format: binding; conditions: 2000 nM; read-out: Percent Control
MEK2 (MAP2K2) = MEK2 (MAP2K2) (Homo sapiens (Human), UniProt P36507); test: KINOMEscan scanMAX; format: binding; conditions: 2000 nM; read-out: Percent Control
DCAMKL2 (DCLK2) = DCAMKL2 (DCLK2) (Homo sapiens (Human), UniProt Q8N568); test: KINOMEscan scanMAX; format: binding; conditions: 2000 nM; read-out: Percent Control
FGR = FGR (Homo sapiens (Human), UniProt P09769); test: KINOMEscan scanMAX; format: binding; conditions: 2000 nM; read-out: Percent Control
EGFR(G719S) = EGFR(G719S) (Homo sapiens (Human), UniProt P00533, G719S); test: KINOMEscan scanMAX; format: binding; conditions: 2000 nM; read-out: Percent Control
[2] = test system: NFκB-dependent promoter in CDK8/19 deficient (double-knockout) reporter cells; test: NFκB-dependent luciferase reporter assay, CDK8/19 double-knockout vs wild-type 293 cells; conditions: double-knockout vs parental reporter cells
Excerpt: The second cell-based assay measures the effects of CDK8/19 on the expression of firefly luciferase reporter from a NFκB-dependent promoter in 293 cells.

ABL1-phosphorylated = ABL1-phosphorylated (Homo sapiens (Human), UniProt P00519); test: KINOMEscan scanMAX; format: binding; conditions: 2000 nM; read-out: Percent Control
ERBB2 = ERBB2 (Homo sapiens (Human), UniProt P04626); test: KINOMEscan scanMAX; format: binding; conditions: 2000 nM; read-out: Percent Control
ACVR2B = ACVR2B (Homo sapiens (Human), UniProt Q13705); test: KINOMEscan scanMAX; format: binding; conditions: 2000 nM; read-out: Percent Control
[3] = molecular target: ABL1(H396P)-phosphorylated (Homo sapiens (Human), UniProt P00519, H396P); test: KINOMEscan scanMAX; format: binding; conditions: 2000 nM; read-out: Percent Control
CIT = CIT (Homo sapiens (Human), UniProt O14578); test: KINOMEscan scanMAX; format: binding; conditions: 2000 nM; read-out: Percent Control
PDGFRA = PDGFRA (Homo sapiens (Human), UniProt P16234); test: KINOMEscan scanMAX; format: binding; conditions: 2000 nM; read-out: Percent Control
Sequence of PDGFRA (P16234 24-1089): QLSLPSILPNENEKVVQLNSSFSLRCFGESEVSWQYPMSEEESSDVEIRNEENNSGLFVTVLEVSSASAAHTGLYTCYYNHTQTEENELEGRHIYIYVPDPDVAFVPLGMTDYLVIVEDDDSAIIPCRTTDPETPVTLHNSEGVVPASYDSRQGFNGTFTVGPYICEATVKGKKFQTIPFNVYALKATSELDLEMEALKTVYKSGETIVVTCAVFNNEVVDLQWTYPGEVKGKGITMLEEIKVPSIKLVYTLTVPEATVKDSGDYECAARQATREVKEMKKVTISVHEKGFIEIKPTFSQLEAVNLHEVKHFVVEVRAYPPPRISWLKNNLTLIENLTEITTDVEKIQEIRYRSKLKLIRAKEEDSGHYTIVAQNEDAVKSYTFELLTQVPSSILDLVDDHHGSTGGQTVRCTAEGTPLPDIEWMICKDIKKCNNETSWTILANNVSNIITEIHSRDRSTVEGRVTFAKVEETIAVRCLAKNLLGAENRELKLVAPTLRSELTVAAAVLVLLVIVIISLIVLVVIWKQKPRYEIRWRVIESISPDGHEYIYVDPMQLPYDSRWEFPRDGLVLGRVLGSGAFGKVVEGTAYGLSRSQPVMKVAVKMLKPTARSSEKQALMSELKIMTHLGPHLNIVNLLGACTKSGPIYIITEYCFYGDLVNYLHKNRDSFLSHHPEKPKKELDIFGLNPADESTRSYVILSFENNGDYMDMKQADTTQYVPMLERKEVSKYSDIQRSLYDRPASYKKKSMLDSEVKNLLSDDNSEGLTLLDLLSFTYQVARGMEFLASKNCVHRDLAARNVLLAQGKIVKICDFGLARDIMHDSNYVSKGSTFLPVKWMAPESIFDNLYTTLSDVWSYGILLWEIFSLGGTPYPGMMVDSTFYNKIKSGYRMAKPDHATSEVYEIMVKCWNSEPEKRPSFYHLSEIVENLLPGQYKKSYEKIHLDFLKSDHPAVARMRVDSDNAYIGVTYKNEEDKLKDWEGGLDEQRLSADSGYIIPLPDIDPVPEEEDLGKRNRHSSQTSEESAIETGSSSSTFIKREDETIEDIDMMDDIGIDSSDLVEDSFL

TLK1 = TLK1 (Homo sapiens (Human), UniProt Q9UKI8); test: KINOMEscan scanMAX; format: binding; conditions: 2000 nM; read-out: Percent Control
LZK (MAP3K13) = LZK (MAP3K13) (Homo sapiens (Human), UniProt O43283); test: KINOMEscan scanMAX; format: binding; conditions: 2000 nM; read-out: Percent Control
Sequence of LZK (MAP3K13) (O43283 whole entry): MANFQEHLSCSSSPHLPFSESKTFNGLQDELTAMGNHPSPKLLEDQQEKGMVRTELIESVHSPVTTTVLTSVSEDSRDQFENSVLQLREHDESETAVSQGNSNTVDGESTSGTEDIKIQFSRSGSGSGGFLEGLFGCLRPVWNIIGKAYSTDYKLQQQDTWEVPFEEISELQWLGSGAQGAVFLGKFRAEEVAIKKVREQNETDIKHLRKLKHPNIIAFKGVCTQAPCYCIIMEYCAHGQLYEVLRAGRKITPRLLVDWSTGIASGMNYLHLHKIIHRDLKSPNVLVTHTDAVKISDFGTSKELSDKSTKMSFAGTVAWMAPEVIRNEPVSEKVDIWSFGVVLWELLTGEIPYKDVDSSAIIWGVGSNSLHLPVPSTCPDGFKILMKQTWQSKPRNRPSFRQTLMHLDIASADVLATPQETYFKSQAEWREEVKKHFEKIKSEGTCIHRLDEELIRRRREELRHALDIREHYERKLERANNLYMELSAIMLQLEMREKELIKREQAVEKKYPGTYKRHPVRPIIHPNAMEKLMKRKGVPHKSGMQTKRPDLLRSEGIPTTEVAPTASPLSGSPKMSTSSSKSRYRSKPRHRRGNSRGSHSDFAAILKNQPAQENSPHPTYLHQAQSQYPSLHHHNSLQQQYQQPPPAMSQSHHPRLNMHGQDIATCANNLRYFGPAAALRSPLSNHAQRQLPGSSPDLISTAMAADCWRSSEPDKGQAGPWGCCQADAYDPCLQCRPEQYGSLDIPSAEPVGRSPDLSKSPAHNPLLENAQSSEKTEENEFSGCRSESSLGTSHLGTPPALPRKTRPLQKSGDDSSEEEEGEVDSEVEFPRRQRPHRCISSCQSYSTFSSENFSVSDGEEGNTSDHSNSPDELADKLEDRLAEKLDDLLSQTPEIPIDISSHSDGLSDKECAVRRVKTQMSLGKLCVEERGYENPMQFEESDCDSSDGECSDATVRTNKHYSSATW

BRAF = BRAF (Homo sapiens (Human), UniProt P15056); test: KINOMEscan scanMAX; format: binding; conditions: 2000 nM; read-out: Percent Control
MAP4K2 = MAP4K2 (Homo sapiens (Human), UniProt Q12851); test: DiscoverX Kd assay
[4] = Mouse pharmacokinetics, intraperitoneal, serum; format: in vivo, mice
Procedure: […] Blood samples were collected at different time points (5 mice per time point) and Senexin C concentration in the serum was measured by LC/MS/MS.

Sequence of LTK (P29376 17-864): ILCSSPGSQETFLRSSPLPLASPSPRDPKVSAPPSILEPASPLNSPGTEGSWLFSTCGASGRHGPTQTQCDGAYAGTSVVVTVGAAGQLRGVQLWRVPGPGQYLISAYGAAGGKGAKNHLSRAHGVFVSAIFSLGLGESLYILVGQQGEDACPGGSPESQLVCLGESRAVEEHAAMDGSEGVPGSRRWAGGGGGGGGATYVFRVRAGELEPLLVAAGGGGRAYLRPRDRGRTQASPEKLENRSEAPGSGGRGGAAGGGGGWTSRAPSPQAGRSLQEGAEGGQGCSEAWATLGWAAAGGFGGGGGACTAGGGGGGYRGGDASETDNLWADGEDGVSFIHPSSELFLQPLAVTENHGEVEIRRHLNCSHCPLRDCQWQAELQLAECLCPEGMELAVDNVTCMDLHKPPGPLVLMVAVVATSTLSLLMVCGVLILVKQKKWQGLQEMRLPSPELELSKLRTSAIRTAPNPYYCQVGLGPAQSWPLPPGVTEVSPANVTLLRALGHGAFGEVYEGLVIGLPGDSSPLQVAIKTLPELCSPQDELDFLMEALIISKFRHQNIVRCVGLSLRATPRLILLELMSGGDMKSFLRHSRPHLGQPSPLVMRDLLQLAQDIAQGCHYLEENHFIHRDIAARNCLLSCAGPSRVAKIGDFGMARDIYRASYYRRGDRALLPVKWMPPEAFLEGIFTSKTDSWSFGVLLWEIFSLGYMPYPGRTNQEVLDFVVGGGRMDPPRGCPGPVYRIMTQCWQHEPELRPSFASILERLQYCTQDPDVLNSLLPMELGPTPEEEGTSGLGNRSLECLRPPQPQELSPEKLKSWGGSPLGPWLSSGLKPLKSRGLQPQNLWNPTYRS

CN1CCN(C(=O)c2ccc3cc(CCNc4ccnc5ccc(C#N)cc45)ccc3c2)CC1 [compound 6148, 4-((2-(6-(4-methylpiperazine-1-carbonyl)naphthalen-2-yl)ethyl)amino)quinoline-6-carbonitrile]
remaining binding at 2 µM (SGK (SGK1)): 50% | remaining binding at 2 µM (LTK): 93% | remaining binding at 2 µM (ICK): 54% | remaining binding at 2 µM (RET(V804M)): 91% | remaining binding at 2 µM [1]: 76% | remaining binding at 2 µM (CDKL5): 70% | remaining binding at 2 µM (PDPK1): 86% | remaining binding at 2 µM (NIM1 (MGC42105)): 67% | remaining binding at 2 µM (GRK7): 87% | remaining binding at 2 µM (ALK(L1196M)): 92% | remaining binding at 2 µM (PKAC-alpha (PRKACA)): 93% | remaining binding at 2 µM (CSNK1D): 87% | remaining binding at 2 µM (TEC): 100% | remaining binding at 2 µM (MAP3K2): 68% | remaining binding at 2 µM (YSK4 (MAP3K19)): 50% | remaining binding at 2 µM (MYO3B): 31% | remaining binding at 2 µM (EGFR(E746-A750del)): 100% | remaining binding at 2 µM (DDR1): 100% | remaining binding at 2 µM (EGFR(G719C)): 93% | remaining binding at 2 µM (PAK7): 100% | remaining binding at 2 µM (SYK): 97% | remaining binding at 2 µM (MEK2 (MAP2K2)): 64% | remaining binding at 2 µM (DCAMKL2 (DCLK2)): 94% | remaining binding at 2 µM (FGR): 90% | remaining binding at 2 µM (EGFR(G719S)): 100% | IC50 in CDK8/19-deficient cells relative to wild-type cells [2]: > 50 times | remaining binding at 2 µM (ABL1-phosphorylated): 67% | remaining binding at 2 µM (ERBB2): 73% | remaining binding at 2 µM (ACVR2B): 90% | remaining binding at 2 µM [3]: 81% | remaining binding at 2 µM (CIT): 48% | remaining binding at 2 µM (PDGFRA): 97% | remaining binding at 2 µM (TLK1): 94% | remaining binding at 2 µM (LZK (MAP3K13)): 46% | remaining binding at 2 µM (BRAF): 84% | Kd (MAP4K2): 940 nM | elimination rate k ([4]; i.p. 19 mg/kg, female FVB mice): 0.94 h⁻¹ | t1/2 ([4]; i.p. 19 mg/kg, female FVB mice): 44.4 min | Half-life higher than Senexin B ([4]; i.p., mice): > 4 fold | half-life ([4]; mouse, serum, ip, i.p. 19 mg/kg, female FVB mice): 44.4 min | AUC ([4]; mouse, serum, ip, i.p. 19 mg/kg, female FVB mice, read-out: AUC): 1570 ng·h/mL | Cmax ([4]; mouse, serum, ip, i.p. 19 mg/kg, female FVB mice, read-out: Cmax): 1160 ng/mL | bioavailability ([4]; mouse, serum, ip, i.p. 19 mg/kg, female FVB mice, read-out: bioavailability (F %)): 73%
